Reference: US20060270705A1, “Method for inhibiting lipid absorption and lipid absorption inhibitor” (Japan Tobacco Inc., priority 2005, published 2006)

Assays:
[1] = system: lipid absorption in the small intestine; experiment: Inhibitory effect on lipid absorption in the small intestine: plasma triglyceride after oral olive oil loading in hamsters; type: in vivo, normal syrian hamsters; settings: control group = 100%; for TG Concentration (%): Test 1, olive oil 2 mL/kg 30 min later, plasma 4 hours after olive oil, male 13-week old hamsters; for TG Concentration (4 hours) / TG Concentration (%) (8 hours): Test 2, 30 mg/kg oral, male 12-week old hamsters; for TG Concentration (4 hours): plasma 4 hours after oil loading; for TG Concentration (%) (8 hours): plasma 8 hours after oil loading
Method: Test of Inhibitory Effect on Lipid Absorption in the Small Intestine by Various CETP Inhibitors in Hamsters
(§1) Three kinds of CETP inhibitors (compound A: 40 mg/kg, compound B: 3 mg/kg, compound C: 3 mg/kg) suspended in 0.5% aqueous methylcellulose were orally administered to normal syrian hamsters (male, 13-week old). Only 0.5% aqueous methylcellulose was administered to the control group. After 30 minutes, olive oil at a dose of 2 mL/kg was orally loaded. Blood was collected from ophthalmic venous plexus 4 hours after the administration of olive oil, and plasma triglyceride (TG) concentration and CETP inhibitory activity were measured. Plasma triglyceride (TG) concentration was measured by enzymatic method. For CETP activity, the amount of [^3H]CE transferred from donor lipoprotein ([^3H]CE-HDL3) to acceptor lipoprotein (hamster apoB-containing lipoprotein) was used as index.
(§2) Using a test system similar to Test 1, the effects of compound B (30 mg/kg) and compound C (30 mg/kg) in normal syrian hamsters (male, 12-week old) were examined. Blood collection was carried out at 4 and 8 hours after oil loading, and plasma triglyceride (TG) concentration and CETP inhibitory activity were measured.

CETP = CETP activity in hamster plasma after oral dosing: [3H]CE transfer from donor [3H]CE-HDL3 to hamster apoB-containing lipoprotein; type: in vivo, normal syrian hamsters; settings: proportion relative to control group = 100%; for CETP Inhibitory Activity (%): Test 1, plasma 4 hours after olive oil; for CETP Inhibitory Activity (%) (8 hours): Test 2, 30 mg/kg oral, plasma 8 hours after oil loading
Method: Potassium bromide (KBr) was added to plasma (40 mL) of a healthy subject, adjusted to have a specific density d=1.125 g/mL, and subjected to fractional ultracentrifugation (288,000×g, 4° C., 18 to 20 hr), and a fraction showing a specific density of d>1.125 g/mL (HDL3 fraction) was harvested. The obtained fraction was dialyzed against PBS solution [10 mmol/L Na2HPO4; 10 mmol/L NaH2PO4; 0.15 mol/L NaCl; 1 mmol/L EDTA (pH 7.4)]. Then, tritium-labeled cholesterol (37 MBq) was dissolved in 95% ethanol, gradually added to the above-mentioned HDL3 fraction with stirring and incubated at 37° C. for 18 to 24 hr. [By this operation, tritium-labeled cholesterol was esterified by the action of lecithin cholesterol acyl transferase (LCAT) present on the HDL3 surface and taken up into HDL3 as tritium-labeled cholesteryl ester ([^3H]CE)]. After incubation, KBr was added, the specific density was adjusted to d=1.21 g/mL, and subjected to fractional ultracentrifugation (285,000×g, 4° C., 70 to 90 hr), and a fraction of specific density […] was harvested. The obtained fraction was dialyzed against the aforementioned PBS solution to give HDL3 incorporating [^3H]CE ([^3H]CE-HDL3, specific density: 1.125<d<1.21, specific activity: 22,000-33,000 dpm/μL) as a donor lipoprotein.
as §1, §2

[2] = 3 mg/kg oral in 0.5% methylcellulose

| SMILES | TG Concentration (%) ([1]; 40 mg/kg oral in 0.5% methylcellulose) | CETP Inhibitory Activity (%) (CETP; 40 mg/kg oral) | TG Concentration (%) [1, 2] [%] | TG Concentration (4 hours) [1] [%] | TG Concentration (%) (8 hours) [1] | CETP Inhibitory Activity (%) (CETP; 3 mg/kg oral) | CETP Inhibitory Activity (%) (8 hours) (CETP) |
| --- | --- | --- | --- | --- | --- | --- | --- |
| CCC(CC)CC1(C(=O)Nc2ccccc2SC(=O)C(C)C)CCCCC1 [Compound A, S-{2-([[1-(2-ethylbutyl)cyclohexyl]carbonyl]amino)phenyl}2-methylpropanethioate] | 87 | 83 |  |  |  |  |  |
| CCN(C[C@H]1CC[C@H](CC(=O)O)CC1)c1cc(C)c(C(F)(F)F)cc1CN(Cc1cc(C(F)(F)F)cc(C(F)(F)F)c1)c1nnn(C)n1.CS(=O)(=O)O [Compound B, trans-(4-{[N-(2-{[N′-[3,5-bis(trifluoromethyl)benzyl]-N′-(2-methyl-2H-tetrazol-5-yl)amino]methyl}-5-methyl-4-trifluoromethylphenyl)-N-ethylamino]methyl}cyclohexyl)acetic acid methanesulfonate] |  |  | 69 | 66 | 56 | 29 | 29 |
| CCOC(=O)N1c2ccc(C(F)(F)F)cc2[C@@H](N(Cc2cc(C(F)(F)F)cc(C(F)(F)F)c2)C(=O)OC)C[C@H]1CC [Compound C] |  |  | 69 | 85 | 71 | 20 | 37 |
